Source: patent publication US20070270421A1, “Novel pyridine Derivative and Pyrimidine Derivative (1)” (priority 2004, published 2007)
pIC50: −log10 of the molar value.

Tests used:
[1] = target: T1, HGFR autophosphorylation (Homo sapiens, UniProt P08581); assay: Inhibitory activity against the HGFR autophosphorylation using ELISA; assay type: cell-based; conditions: MKN-45 cells, 1 hr treatment, read-out: IC50 (concentration necessary to inhibit HGFR autophosphorylation activity by 50%)
T1 construct: endogenous in cells; host or cells: MKN-45 human gastric cancer cells
Method: Human gastric cancer cells (MKN-45) were suspended in a 1% FBS-containing RPMI1640 medium (purchased from Sigma). The cell suspension (1×10^5 cells/ml) was put in a 96-well plate for cell culture (purchased from NUNC, Production No. 167008) at 0.1 ml/well, and then cultured in a 5% CO2 incubator (37° C.) overnight. After the culture, from each well was removed the supernatant solution, followed by adding 0.05 ml of a 1% FBS-containing RPMI1640 medium. Then, the well was supplied with 0.05 ml of the test substance dissolved in dimethyl sulfoxide (diluted with a 1% FBS-containing RPMI1640 medium), followed by culturing in a 5% CO2 incubator (37° C.) for 1 hr. From each well was removed the supernatant, and each well was washed with 150 μl of PBS, followed by adding 100 μl of a lysis buffer (50 mM Hepes (pH 7.4), 150 mM NaCl, 10% (v/v) glycerol, 1% Triton X-100, 1.5 mM MgCl2, 1 mM EDTA (pH 8.0), 100 mM NaF, 1 mM PMSF, 10 μg/ml Aprotinin, 50 μg/ml Leupeptin, 1 μg/ml Pepstatin A and 1 mM Na3VO4). The plate was shaken at 4° C. for 1 hr to prepare the cell extract.
To a 96-well plate for ELISA (purchased from COSTAR, Production No. 3369) was added 50 μl of 60 mM bicarbonate buffer (pH 9.6) containing 50 μg/ml of an anti-phosphotyrosine antibody (PY20, purchased from Transduction Laboratory, Production No. P-11120). The plate was incubated at 4° C. overnight.
Each well of the plate prepared in 2. was washed three times with 200 μl of PBS, and supplied with 150 μl of 3% BSA/PBS, followed by incubating at room temperature for 2 hrs. Each well was washed three times with 200 μl of PBS, and supplied with 50 μl of the above cell extract, followed by incubating at 4° C. overnight. After the incubation, each well was washed three times with 250 μl of a washing solution (0.1% BSA, 20 mM Tris-HCl (pH 7.6), 137 mM NaCl, and 0.05% Tween-20), and supplied with 70 μl of anti-HGFR antibody (h-Met(C-12), purchased from Santa Cruz, Production No. sc-10) 2,000-fold diluted with a reaction solution (1% BSA, 20 mM Tris-HCl (pH 7.6), 137 mM NaCl and 0.05% Tween-20), followed by incubating at room temperature for 1 hr. The well was washed three times with 250 μl of the washing solution, and supplied with 70 μl of peroxidase-labelled anti-rabbit IgG antibody (purchased from Cell Signaling, Production No. 7074) 2,000-fold diluted with the reaction solution, followed by incubating at room temperature for 1 hr. Each well was washed three times with 250 μl of the washing solution, and supplied with 70 μl of TMB Membrane Peroxidase Substrate (purchased from Funakoshi, Production No. 50-5077-03), followed by incubating at room temperature for 10 min. Each well was supplied with 70 μl of 1 M phosphoric acid, and using the Plate Reader MTP-500 (Corona Electric), the absorbance of the well was instantly determined at a measurement wavelength of 450 nm. While defining the absorbance of a well supplied with the cell extract having no test substance as 100% HGFR autophosphorylation activity, and the absorbance of a well supplied with 50 μl of the lysis buffer as 0% HGFR autophosphorylation activity, the HGFR autophosphorylation activity (%) was calculated for each well. The concentration of the test substance was changed by several levels to calculate HGFR autophosphorylation activities (%) in respective cases, and to calculate the concentration (IC50) of the test substance necessary to inhibit HGFR autophosphorylation activity by 50%.

[2] = test system: Human pancreatic cancer cells (SUIT-2); assay: Inhibitory activity against migration of human pancreatic cancer cells (SUIT-2); assay type: cell-based; conditions: SUIT-2, Transwell, HGF stimulation, 24 hrs, read-out: IC50 (concentration necessary to inhibit the cell migration activity by 50%)
Method: Human pancreatic cancer cells (SUIT-2) were suspended in a 1% FBS-containing RPMI1640 medium (purchased from Sigma) to prepare a cell suspension (8×10^5 cells/ml). To the lower compartment of Transwell (purchased from COSTAR, Production No. 3422) was added 600 μl of a 1% FBS-containing RPMI1640 medium. To the upper compartment were added 50 μl of the above cell suspension and 25 μl of the test substance dissolved in dimethyl sulfoxide (diluted with the 1% FBS-containing RPMI1640 medium), followed by culturing in a 5% CO2 incubator (37° C.) for 1 hr. After the culture, to the upper compartment of each Transwell was added 25 μl of human recombinant hepatocyte growth factor (HGF, purchased from Wako Pure Chemical Industry, Production No. 22949) diluted to 280 ng/ml with a 1% FBS-containing RPMI1640 medium, followed by culturing in a 5% CO2 incubator (37° C.) for 24 hrs. The cells adhering to the lower compartment of each well were counted in five fields by a phase contrast microscope (200×) to calculated an average adhering cell number. While defining the average adhering cell number of a well supplied with […] and no test substance as 100% cell migration activity and the average adhering cell number of a well supplied with no HGFR and no test substance as 0% cell migration activity, the cell migration activity percent (%) was calculated for each well. The concentration of the test substance was varied at several levels to calculate the cell migration activity percent (%) for respective cases, and to calculate the concentration of the test substance necessary to inhibit the cell migration activity by 50% (IC50).

T1 sequence (P08581 25-1390): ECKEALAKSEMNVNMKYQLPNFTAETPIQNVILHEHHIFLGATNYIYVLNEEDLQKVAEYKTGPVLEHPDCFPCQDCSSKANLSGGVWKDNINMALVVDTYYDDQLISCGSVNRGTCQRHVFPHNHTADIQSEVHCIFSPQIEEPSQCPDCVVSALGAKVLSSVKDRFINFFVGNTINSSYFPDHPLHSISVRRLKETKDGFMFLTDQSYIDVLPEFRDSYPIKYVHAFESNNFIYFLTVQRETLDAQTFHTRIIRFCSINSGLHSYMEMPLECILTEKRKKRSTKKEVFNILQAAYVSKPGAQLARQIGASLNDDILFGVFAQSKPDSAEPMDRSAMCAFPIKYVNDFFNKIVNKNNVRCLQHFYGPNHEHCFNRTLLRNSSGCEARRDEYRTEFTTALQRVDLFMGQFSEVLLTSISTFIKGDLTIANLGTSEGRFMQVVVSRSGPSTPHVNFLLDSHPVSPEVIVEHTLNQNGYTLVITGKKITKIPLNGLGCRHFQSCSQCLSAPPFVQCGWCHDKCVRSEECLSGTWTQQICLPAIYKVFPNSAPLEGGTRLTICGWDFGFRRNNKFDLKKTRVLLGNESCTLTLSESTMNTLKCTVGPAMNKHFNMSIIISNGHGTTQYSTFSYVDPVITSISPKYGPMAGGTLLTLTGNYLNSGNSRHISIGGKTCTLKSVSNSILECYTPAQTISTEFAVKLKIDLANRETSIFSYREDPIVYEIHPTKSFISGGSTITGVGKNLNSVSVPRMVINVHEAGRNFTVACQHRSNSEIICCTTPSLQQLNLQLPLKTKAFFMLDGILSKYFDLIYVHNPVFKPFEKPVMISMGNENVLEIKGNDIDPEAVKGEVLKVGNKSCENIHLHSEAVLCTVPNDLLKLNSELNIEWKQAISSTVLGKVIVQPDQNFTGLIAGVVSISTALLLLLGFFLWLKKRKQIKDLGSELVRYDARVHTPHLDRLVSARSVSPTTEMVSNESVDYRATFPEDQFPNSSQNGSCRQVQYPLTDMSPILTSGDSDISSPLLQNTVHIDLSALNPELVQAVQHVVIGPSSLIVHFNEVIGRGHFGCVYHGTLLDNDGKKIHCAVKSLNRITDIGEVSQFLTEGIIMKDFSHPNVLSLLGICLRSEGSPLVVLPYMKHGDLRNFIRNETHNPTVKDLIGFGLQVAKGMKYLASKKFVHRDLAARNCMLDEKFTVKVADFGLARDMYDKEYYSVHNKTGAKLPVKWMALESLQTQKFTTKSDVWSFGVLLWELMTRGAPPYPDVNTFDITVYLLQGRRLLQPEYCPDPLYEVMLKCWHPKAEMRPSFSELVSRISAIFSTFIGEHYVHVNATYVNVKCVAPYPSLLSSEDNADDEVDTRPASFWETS

SMILES	pIC50 [1]	pIC50 [2]
O=C(CC(=O)Nc1ccc(Oc2ccnc(NC(=O)C3CC3)c2)cc1F)Nc1ccc(F)cc1 [Example 77, N-(4-Fluorophenyl)-N′-{4-[2-(cyclopropanecarbonylamino)pyridin-4-yloxy]-2-fluorophenyl}malonamide]	6.96	
O=C(Cc1ccc(F)cc1)NC(=S)Nc1ccc(Oc2cc(NC(=O)N3CCCC3)ncn2)c(F)c1 [Example 3, Pyrrolidine-1-carboxylic acid [6-(2-fluoro-4-{3-[2-(4-fluorophenyl)acetyl]thioureido}phenoxy)pyrimidin-4-yl]amide]	7.70	7.30
O=C(Cc1ccc(F)cc1)NC(=S)Nc1ccc(Oc2ccnc(NC(=O)N3CCCC3)c2)c(F)c1 [Example 13, 4-(2-Fluoro-4-{3-[2-(4-fluorophenyl)acetyl]thioureido}phenoxy)-2-[(pyrrolidin-1-yl)carbonylamino]pyridine]	8.17	8.49
CN1CCC(N(C)C(=O)Nc2cc(Oc3ccc(NC(=O)CC(=O)Nc4ccc(F)cc4)cc3F)ccn2)CC1 [Example 89, N-(3-Fluoro-4-{2-[3-methyl-3-(1-methylpiperidin-4-yl)ureido]pyridin-4-yloxy}phenyl)-N′-(4-fluorophenyl)malonamide]	7.31	
O=C(Cc1ccccc1)NC(=O)Nc1ccc(Oc2ccnc(NC(=O)N3CCCC3)c2)c(F)c1 [Example 43, 4-{2-Fluoro-4-[3-(2-phenylacetyl)ureido]phenoxy}-2-[(pyrrolidin-1-yl)carbonylamino]pyridine]	7.23	
O=C(Cc1ccccc1)NC(=O)Nc1ccc(Oc2ccnc(NC(=O)N3CCC(N4CCCC4)CC3)c2)c(F)c1 [Example 45, 4-{2-Fluoro-4-[3-(2-phenylacetyl)ureido]phenoxy}-2-{[4-(pyrrolidin-1-yl)piperidin-1-yl]carbonylamino}pyridine]	6.46	
CCN(CC)CCCN(C)C(=O)Nc1cc(Oc2ccc(NC(=S)NC(=O)Cc3ccc(F)cc3)cc2F)ccn1 [Example 22, 1-(3-Diethylaminopropyl)-3-[4-(2-fluoro-4-{3-[2-(4-fluorophenyl)acetyl]thioureido}phenoxy)pyridin-2-yl]-1-methylurea]	> 7.52	
CN1CCCN(C(=O)Nc2cc(Oc3ccc(NC(=O)CC(=O)Nc4ccc(F)cc4)c(F)c3)ccn2)CC1 [Example 92, N-(2-Fluoro-4-{2-[(4-methyl-[1,4]diazepane-1-carbonyl)amino]pyridin-4-yloxy}phenyl)-N′-(4-fluorophenyl)malonamide]	6.27	
O=C(CC(=O)Nc1ccc(Oc2ccnc(NC(=O)N3CCCC3)c2)c(F)c1)Nc1ccc(F)cc1 [Example 56, N-(4-Fluorophenyl)-N′-(3-fluoro-4-{2-[(pyrrolidine-1-carbonyl)amino]pyridin-4-yloxy}phenyl)malonamide]	6.89	7.42
Cc1cc(Oc2ccnc(NC(=O)N3CCC(N4CCCC4)CC3)c2)ccc1NC(=O)CC(=O)Nc1ccc(F)cc1 [Example 85, N-(4-Fluorophenyl)-N′-[2-methyl-4-(2-{[(4-pyrrolidin-1-yl)piperidine-1-carbonyl]amino}pyridin-4-yloxy)phenyl]malonamide]	6.23	
O=C(Cc1ccccc1)NC(=O)Nc1ccc(Oc2ccnc(NC(=O)N3CCOCC3)c2)c(F)c1 [Example 48, Morpholine-4-carboxylic acid {4-[2-fluoro-4-(3-phenylacetylureido)phenoxy]pyridin-2-yl}amide]	6.59	
O=C(CC(=O)Nc1ccc(Oc2ccnc(NC(=O)N3CCC(N4CCCC4)CC3)c2)cc1F)Nc1ccc(F)cc1 [Example 82, N-(4-Fluorophenyl)-N′-[2-fluoro-4-(2-{[4-(pyrrolidin-1-yl)piperidine-1-carbonyl]amino}pyridin-4-yloxy)phenyl]malonamide]	7.06	
CN1CCC(N(C)C(=O)Nc2cc(Oc3ccc(NC(=S)NC(=O)Cc4ccccc4)cc3F)ccn2)CC1 [Example 28, 3-{4-[2-Fluoro-4-(3-phenylacetylthioureido)phenoxy]pyridin-2-yl}-1-methyl-1-(1-methylpiperidin-4-yl)urea]	7.72	
O=C(Cc1ccccc1)NC(=S)Nc1ccc(Oc2ccnc(NC(=O)N3CCC(O)CC3)c2)c(F)c1 [Example 15, 4-{2-Fluoro-4-[3-(2-phenylacetyl)thioureido]phenoxy}-2-[(4-hydroxypiperidin-1-yl)carbonylamino]pyridine]	7.89	
O=C(Cc1ccccc1)NC(=S)Nc1ccc(Oc2ccnc(NC(=O)N3CCOCC3)c2)c(Cl)c1 [Example 11, 4-{2-Chloro-4-[3-(2-phenylacetyl)thioureido]phenoxy}-2-[(morpholin-4-yl)carbonylamino]pyridine]	7.37	
Cc1cc(NC(=S)NC(=O)Cc2ccc(F)cc2)ccc1Oc1ccnc(NC(=O)N2CCOCC2)c1 [Example 24, Morpholine-4-carboxylic acid (4-{2-methyl-4-[3-(4-fluorophenyl)acetylthioureido]phenoxy}pyridin-2-yl)amide]	7.16	
CN1CCC(N(C)C(=O)Nc2cc(Oc3ccc(NC(=O)NC(=O)Cc4ccccc4)cc3F)ccn2)CC1 [Example 52, 3-{4-[2-Fluoro-4-(3-phenylacetylureido)phenoxy]pyridin-2-yl]-1-methyl-1-(1-methylpiperidin-4-yl)urea]	6.47	
O=C(Cc1ccc(F)cc1)NC(=S)Nc1ccc(Oc2ccnc(NC(=O)N3CCCC3)c2)cc1 [Example 9, Pyrrolidine-1-carboxylic acid [4-(4-{3-[2-(4-fluorophenyl)acetyl]thioureido}phenoxy)pyridin-2-yl]amide]	7.70	
CN1CCN(C(=O)Nc2cc(Oc3ccc(NC(=O)NC(=O)Cc4ccccc4)cc3F)ccn2)CC1 [Example 50, 4-Methylpiperazine-1-carboxylic acid {4-[2-fluoro-4-(3-phenylacetylureido)phenoxy]pyridin-2-yl}amide]	6.55	
CN(C)C(=O)Nc1cc(Oc2ccc(NC(=O)NC(=O)Cc3ccccc3)cc2F)ccn1 [Example 44, 2-[(Dimethylamino)carbonylamino]-4-{2-fluoro-4-[3-(2-phenylacetyl)ureido]phenoxy}pyridine]	6.46	
CN(C)C(=O)Nc1cc(Oc2ccc(NC(=S)NC(=O)CC3CC4CCC3C4)cc2F)ccn1 (stereo not drawn) [Example 17, 2-[(Dimethylamino)carbonylamino]-4-{2-fluoro-4-[3-(2-norbornaneacetylthio)ureido]phenoxy}pyridine]	6.92	
